“Also recorded” adds a separate entry of the source. Read-outs that look alike come from different tables or passages of the source.
Legend:
[1] = target: TNKS2 (residues 20-800) (Homo sapiens, UniProt Q9H2K2); conditions: read-out: affinity of binding to TNKS2; fluorescence polarization; Guettler et al., 2011; cited from earlier work
[2] = target: T1, TNKS2 (Homo sapiens, UniProt Q9H2K2); assay: Western blot of TNKS2 levels in HEK293A cells transfected with PROTAC-encoding plasmids; assay type: cell-based; conditions: 20 hours after transfection, actin loading control
T1 construct: endogenous in cells; host or cells: HEK293A
T1 sequence (Q9H2K2 1-1166): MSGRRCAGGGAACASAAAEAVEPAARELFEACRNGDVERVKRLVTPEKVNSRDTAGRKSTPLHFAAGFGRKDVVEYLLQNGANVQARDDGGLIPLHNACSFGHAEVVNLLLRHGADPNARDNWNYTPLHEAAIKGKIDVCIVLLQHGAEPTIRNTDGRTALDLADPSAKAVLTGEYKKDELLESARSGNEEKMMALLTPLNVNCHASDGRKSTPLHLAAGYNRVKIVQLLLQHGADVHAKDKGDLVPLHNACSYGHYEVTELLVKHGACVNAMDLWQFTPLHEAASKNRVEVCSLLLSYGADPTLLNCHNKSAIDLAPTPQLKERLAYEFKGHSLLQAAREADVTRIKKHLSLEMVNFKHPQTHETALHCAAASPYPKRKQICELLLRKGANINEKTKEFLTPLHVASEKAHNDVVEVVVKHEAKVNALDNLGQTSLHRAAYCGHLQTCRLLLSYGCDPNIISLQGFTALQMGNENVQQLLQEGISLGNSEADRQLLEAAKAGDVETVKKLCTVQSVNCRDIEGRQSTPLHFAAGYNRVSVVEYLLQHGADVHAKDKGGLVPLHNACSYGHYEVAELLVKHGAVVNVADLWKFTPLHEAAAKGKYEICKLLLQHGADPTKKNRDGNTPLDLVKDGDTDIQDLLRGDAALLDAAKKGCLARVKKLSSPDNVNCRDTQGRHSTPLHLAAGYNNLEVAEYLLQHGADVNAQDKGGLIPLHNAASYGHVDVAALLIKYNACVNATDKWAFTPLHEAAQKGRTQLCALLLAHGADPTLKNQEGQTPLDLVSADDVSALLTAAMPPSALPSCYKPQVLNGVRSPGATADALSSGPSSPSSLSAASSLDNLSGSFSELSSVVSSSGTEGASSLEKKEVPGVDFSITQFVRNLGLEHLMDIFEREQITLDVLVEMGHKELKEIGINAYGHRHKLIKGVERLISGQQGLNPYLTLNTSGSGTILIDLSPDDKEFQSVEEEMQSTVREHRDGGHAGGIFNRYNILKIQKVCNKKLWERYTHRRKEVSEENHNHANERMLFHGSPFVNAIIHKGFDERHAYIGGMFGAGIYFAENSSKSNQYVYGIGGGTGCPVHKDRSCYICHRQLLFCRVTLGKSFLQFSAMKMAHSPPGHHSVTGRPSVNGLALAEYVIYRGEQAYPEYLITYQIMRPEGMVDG
Source text: A DNA construct encoding for the TNKS2 binding sequence (3BP2^410-425) at the N-terminus as set out in SEQ ID NO: 1, a GGGGSS linker as set out in SEQ ID NO: 3, and the E3 binding sequence (ALAPYIP) as set out in SEQ ID NO: 2, at the C-terminus was cloned into pMOST25 vector (the full PROTAC as set out in SEQ ID NO: 4). pMOST25 is a lentiviral vector based on pCDH EF1a (System Biosciences) where the promoter was swapped for CMV and the MCS replaced by a new cassette with flanking NGS primer sites. Control constructs which (i) lacked the ALAPYIP E3 binding sequence (3BP2^410-425) as set out in SEQ ID NO: 5 or (ii) contained a double mutation which is known to disrupt HIF1α-VHL interaction (3BP2^410-425-ALAAAIP) as set out in SEQ ID NO: 6 were similarly cloned (Table 1). Neither control construct can bind to the E3 ligase and therefore there should be no change in the level of TNKS2 when cells are transduced with these. HEK293A cells were collected 20 hours after transfection, and levels of TNKS2 target protein were assessed by Western Blot (FIG. 2). Membranes were probed with primary antibodies against TNKS2 (Abcam ab155545), or actin (Abcam ab179467) as a loading control. […]
20 hours after transfection, cells were harvested and analyzed by Western Blotting. […]

[3] = tested on: GFP; conditions: HEK293A
Method: GFP was used as the target (test protein) in this study.
GFP-peptide expressing cells were either untreated (DMSO treatment only; ‘Peptide+vehicle’) or treated with the proteasome inhibitor MG132 (10 μM in DMSO, for 4 h) (‘Peptide+MG132’), and were then analyzed by FACS for GFP levels (FIG. 8).

[4] = tested on: GFP; conditions: HEK293A; remark: listed apart in the source
Method: Plasmids encoding for GFP alone (control), or GFP tagged with one of the validated candidate peptide hits from the screening method, Hit (#1) (see Example 5) or Hit (#2), were transduced into HEK293A cells using lentivirus. Cells expressing tagged GFP were either untreated (DMSO treatment only) or treated with the proteasome inhibitor MG132 for 4 hours, after which they were harvested and analyzed by Western Blotting. Membranes were probed with primary antibodies against GFP (CST #2555), or actin (Abcam ab179467) as a loading control. After the addition of HRP-conjugated secondary antibodies, protein signals were detected by chemiluminescence (FIG. 9).

LPHLQRSPPDGQSFRS
Kd [1]: 500 nM

MGLPHLQRSPPDGQSFRSLEGGGGSSAALAPYIP (3BP2(410-425)- ALAPYIP peptide) [3BP2^410-425-ALAPYIP]
levels of TNKS2 by Western blot [2]: led to TNKS2 degradation; also recorded: markedly decreased levels of TNKS2

MGLPHLQRSPPDGQSFRSLEGGGGSSLDPETGEYL (3BP2(410-425) - LDPETGEYL peptide) [3BP2^410-425-LDPETGEYL]
levels of TNKS2 by Western blot [2]: unaffected

MQNNPLTSGLEPSPPQCDYIRPSLTGKFAGNPWYYGKVTRHQAEMA [Hit (#1)]
GFP levels by FACS compared to no peptide control ([3]; Peptide+MG132 (10 μM, 4 h)): restored GFP levels back to that of the ‘no peptide control’ cells
GFP levels by FACS compared to no peptide control ([3]; Peptide+vehicle (DMSO only)): marked degradation of GFP
GFP levels by Western blot ([4]; MG132 treated 4 hours): GFP levels were restored
GFP levels by Western blot compared to GFP control ([4]; absence of MG132): almost complete depletion of GFP

Source: US12529162B2, “Method of screening for peptides capable of binding to a ubiquitin protein ligase (E3)” (Phoremost Limited, priority 2019, dated 2026)
